According to US20240409536A1, “COMPOUNDS AND METHODS FOR MODULATING SPLICING” (REMIX THERAPEUTICS INC., priority 2021, published 2024):
Where a name gives a salt, the structure may show the parent alone.

Assays:
HTT mRNA = test: Splicing RT-qPCR assay, HTT canonical (CJ) and alternative (AJ) junction mRNA; assay type: cell-based; conditions: Homo sapiens, A673 or K562 cells, 24 hours; for IC50: decrease in canonical junction mRNA; for AC50: increase in alternative junction mRNA
Outline: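 Splice switching was scored by qPCR detection of the new alternative-exon junction (AJ) alongside the canonical junction (CJ). Cell lines A673 or K562 received compound 24 h, top dose 10 uM final.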

MYB mRNA = test: Gene panel canonical junction qPCR assay, MYB CJ mRNA decrease; assay type: cell-based, human; conditions: Homo sapiens, canonical junction qPCR, read-out: MYB IC50 (decrease in CJ mRNA levels)
Outline: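 IC50 values describe loss of canonical-junction transcript, fitted by 4-parameter logistic to percent response derived from fixed ΔCt windows. Read-out: RT-qPCR on lysates of compound-treated K562 or A673 cells, probes overlapping the exon junction, ΔΔCt versus housekeeping gene and DMSO control.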

| SMILES | IC50 (HTT mRNA) [nM] | AC50 (HTT mRNA) [nM] | IC50 (MYB mRNA) [nM] |
| --- | --- | --- | --- |
| Cc1cn2cc(NC(=O)c3ccc(C4CCNC5(CC5)C4)c4nccnc34)cc(F)c2n1 (centres unmarked) [Compound 375] | 1000 to 10000 | 1000 to 10000 | 100 to 1000 |
| Cc1cn2nc(NC(=O)c3ccc(N4CCNCC4)c4ccnnc34)cc(C)c2n1 [Compound 100] | 100 to 1000 | 100 to 1000 | 100 to 1000 |
| Cc1cn2cc(NC(=O)c3ccc(N4C[C@H](C)NC5(CC5)C4)c4nccnc34)cc(F)c2n1 [Compound 377] | 1000 to 10000 | 1000 to 10000 | < 100 |
| COc1cnc2c(N3C[C@@H](C)N[C@@H](C)C3)ccc(C(=O)Nc3cc(F)c4nc(C)cn4c3)c2n1 [Compound 205, 8-[(3R,5S)-3,5-dimethylpiperazin-1-yl]-N-{8-fluoro-2-methylimidazo[1,2-a]pyridin-6-yl}-3-methoxyquinoxaline-5-carboxamide; trifluoroacetic acid] | 100 to 1000 | 100 to 1000 | < 100 |
| Cc1cn2cc(NC(=O)c3ccc(N4CCN5CCC[C@H]5C4)c4ccnnc34)cc(F)c2n1 [Compound 154] | 1000 to 10000 | 1000 to 10000 | 100 to 1000 |
| Cc1ccc2c(N3CCNCC3)ccc(C(=O)Nc3cc(F)c4nc(C)cn4c3)c2n1 [Compound 162, N-{8-fluoro-2-methylimidazo[1,2-a]pyridin-6-yl}-2-methyl-5-(piperazin-1-yl)quinoline-8-carboxam-ide, trifluoroacetic acid] | 1000 to 10000 | 1000 to 10000 | < 100 |
| Cc1cn2cc(NC(=O)c3ccc(N4CCNC5(CCOCC5)C4)c4nccnc34)cc(F)c2n1 [Compound 374] | 1000 to 10000 | 1000 to 10000 | 100 to 1000 |
| Cc1cn2cc(NC(=O)c3ccc(N4CCN[C@H](C)C4)c4ccnnc34)cc(F)c2n1 [Compound 146] | 100 to 1000 | 100 to 1000 | < 100 |
| Cc1nc(NC(=O)c2ccc(N3CCNCC3)c3ccnnc23)cc2cn(C)nc12 [Compound 178, N-{2,7-dimethylpyrazolo[3,4-c]pyridin-5-yl}-5-(piperazin-1-yl)cinnoline-8-carboxamide] | > 10000 | > 10000 | 100 to 1000 |
| CCc1cc(NC(=O)c2ccc(N3CCNCC3)c3ccnnc23)nn2cc(C)nc12 [Compound 168, N-{8-ethyl-2-methylimidazo[1,2-b]pyridazin-6-yl}-5-(piperazin-1-yl)cinnoline-8-carboxamide trifluoroacetic acid salt] | > 10000 | > 10000 | 1000 to 10000 |
| Cc1cn2cc(NC(=O)c3ccc(N4CCNCC4)c4cccnc34)cc(F)c2n1 [Compound 165, N-{8-fluoro-2-methylimidazo[1,2-a]pyridin-6-yl}-5-(piperazin-1-yl)quinoline-8-carboxamide] | 1000 to 10000 | 100 to 1000 | < 100 |
| CCNC1CCN(c2ccc(C(=O)Nc3cc(F)c4nc(C)cn4c3)c3nccnc23)CC1 [Compound 191, 8-[4-(ethylamino)piperidin-1-yl]-N-{8-fluoro-2-methylimidazo[1,2-a]pyridin-6-yl}quinoxaline-5-carboxamide] | 100 to 1000 | 100 to 1000 | < 100 |
| CN[C@@H]1CCN(c2ccc(C(=O)Nc3cc(F)c4nc(C)cn4c3)c3nc(OC)cnc23)C1 [Compound 204, (R)—N-{8-fluoro-2-methylimidazo[1,2-a]pyridin-6-yl}-3-methoxy-8-[3-(methylamino)pyrrolidin-1-yl]quinoxaline-5-carboxamide; trifluoroacetic acid] | > 10000 | > 10000 | 1000 to 10000 |
| Cc1cn2cc(NC(=O)c3ccc(N4C[C@@H](C)N[C@@H](C)C4)c4nccnc34)cc(F)c2n1 [Compound 186, 8-(3,5-dimethylpiperazin-1-yl)-N-{8-fluoro-2-methylimidazo[1,2-a]pyridin-6-yl}quinoxaline-5-carboxamide] | 1000 to 10000 | 1000 to 10000 | < 100 |
| Cc1ccc2c(N3CCC(N(C)C)CC3)ccc(C(=O)Nc3cc(F)c4nc(C)cn4c3)c2n1 [Compound 215, 5-[4-(dimethylamino)piperidin-1-yl]-N-{8-fluoro-2-methylimidazo[1,2-a]pyridin-6-yl}-2-methylquinoline-8-carboxamide] | 100 to 1000 | 1000 to 10000 | 100 to 1000 |
| Cc1cn2cc(NC(=O)c3ccc(N4CCN5CCC[C@@H]5C4)c4ccnnc34)cc(F)c2n1 [Compound 153] | 100 to 1000 | 100 to 1000 | < 100 |
| CNCC1CCN(c2ccc(C(=O)Nc3cc(F)c4nc(C)cn4c3)c3nccnc23)CC1 [Compound 192, N-{8-fluoro-2-methylimidazo[1,2-a]pyridin-6-yl}-8-{4-[(methylamino)methyl]piperidin-1-yl}quinoxaline-5-carboxamide trifluoroacetate] | 1000 to 10000 | 1000 to 10000 | 1000 to 10000 |

| SMILES | IC50 (HTT mRNA) [nM] | AC50 (HTT mRNA) [nM] | IC50 (MYB mRNA) [nM] |
| --- | --- | --- | --- |
| COc1ccc2c(N3CCNCC3)ccc(C(=O)Nc3cc(F)c4nc(C)cn4c3)c2n1 [Compound 169, N-{8-fluoro-2-methylimidazo[1,2-a]pyridin-6-yl}-2-methoxy-5-(piperazin-1-yl)quinoline-8-carboxamide] | 1000 to 10000 | 1000 to 10000 | < 100 |
| COc1cc2c(N3CCNCC3)ccc(C(=O)Nc3cc(F)c4nc(C)cn4c3)c2nn1 [Compound 183, N-{8-fluoro-2-methylimidazo[1,2-a]pyridin-6-yl}-3-methoxy-5-(piperazin-1-yl)cinnoline-8-carboxamide] | 1000 to 10000 | 1000 to 10000 | < 100 |
| Cc1cn2cc(NC(=O)c3ccc(N4CCNC5(COC5)C4)c4nccnc34)cc(F)c2n1 [Compound 372] | > 10000 | > 10000 | 1000 to 10000 |
| Cc1cn2cc(NC(=O)c3ccc(N4CCNCC4)c4nnccc34)cc(F)c2n1 [Compound 166, N-(8-fluoro-2-methylimidazo[1,2-a]pyridin-6-yl)-8-(piperazin-1-yl)cinnoline-5-carboxamide 2,2,2-trifluoroacetate] | > 10000 | > 10000 | > 10000 |
| CC(=O)c1cc(NC(=O)c2ccc(N3CCNCC3)c3ccnnc23)cn2cc(C)nc12 [Compound 163, N-{8-acetyl-2-methylimidazo[1,2-a]pyridin-6-yl}-5-(piperazin-1-yl)cinnoline-8-carboxamide] | > 10000 | > 10000 | 1000 to 10000 |
| Cc1cn2cc(NC(=O)c3ccc(N4C[C@@H](C)N[C@@H](C)C4)c4ccnnc34)nc(C)c2n1 [Compound 172, N-{2,8-dimethylimidazo[1,2-a]pyrazin-6-yl}-5-[(3R,5S)-3,5-dimethylpiperazin-1-yl]cinnoline-8-carboxamide] | > 10000 | > 10000 | 100 to 1000 |
| Cc1cnc2c(N3C[C@@H](C)N[C@@H](C)C3)ccc(C(=O)Nc3cc(F)c4nc(C)cn4c3)c2n1 [Compound 216, 8-((3R,5S)-3,5-dimethylpiperazin-1-yl)-N-{8-fluoro-2-methylimidazo[1,2-a]pyridin-6-yl}-3-methylquinoxaline-5-carboxamide] | 1000 to 10000 | > 10000 | 100 to 1000 |
| CNC1CCN(c2ccc(C(=O)Nc3cc(F)c4nc(C)cn4c3)c3nc(OC)cnc23)C1 (centres unmarked) [Compound 202, N-{8-fluoro-2-methylimidazo[1,2-a]pyridin-6-yl}-3-methoxy-8-[3-(methylamino)pyrrolidin-1-yl]quinoxaline-5-carboxamide; bis(trifluoroacetic acid)] | > 10000 | > 10000 |  |
| Cc1cn2cc(NC(=O)c3ccc(C4CCN(C)CC4)c4ccnnc34)cc(F)c2n1 [Compound 140] | 1000 to 10000 | 1000 to 10000 | 100 to 1000 |
| Cc1cn2cc(NC(=O)c3ccc(N4CCNC5(CC5)C4)c4nccnc34)cc(F)c2n1 [Compound 218, 8-{4,7-diazaspiro[2.5]octan-7-yl}-N-{8-fluoro-2-methylimidazo[1,2-a]pyridin-6-yl}quinoxaline-5-carboxamide] | > 10000 | 1000 to 10000 | < 100 |
| Cc1cn2cc(NC(=O)c3ccc(N4CCNCC4)c4ccnnc34)cc(C(C)O)c2n1 (centres unmarked) [Compound 182, N-[8-(1-hydroxyethyl)-2-methylimidazo[1,2-a]pyridin-6-yl]-5-(piperazin-1-yl)cinnoline-8-carboxamide trifluoroacetate] | > 10000 | > 10000 | > 10000 |
| COc1cnc2c(C(=O)Nc3cc(F)c4nc(C)cn4c3)ccc(N3C[C@@H](C)N[C@@H](C)C3)c2n1 [Compound 223] | 100 to 1000 | 100 to 1000 | < 100 |
| CC[C@@H]1CN(c2ccc(C(=O)Nc3cc(F)c4nc(C)cn4c3)c3nnccc23)CCN1 [Compound 151] | 1000 to 10000 | 1000 to 10000 | < 100 |
| COc1cc(NC(=O)c2ccc(N3CCNCC3)c3ccnnc23)cn2cc(C)nc12 [Compound 176, N-{8-methoxy-2-methylimidazo[1,2-a]pyridin-6-yl}-5-(piperazin-1-yl)cinnoline-8-carboxamide trifluoroacetate] | > 10000 | > 10000 | 100 to 1000 |
| Cc1cn2cc(NC(=O)c3ccc(N4CCC(N(C)C)CC4)c4ccnnc34)cc(F)c2n1 [Compound 137] | 100 to 1000 | 100 to 1000 | < 100 |
| Cc1cn2cc(NC(=O)c3ccc(N4CCC(N5CCCC5)C4)c4ccnnc34)cc(F)c2n1 (centres unmarked) [Compound 133] | 1000 to 10000 | 1000 to 10000 | 1000 to 10000 |
